Source: article PMC12108296, “Physicochemical Characterization of Kynurenine Pathway Metabolites” (Antioxidants, 2025)
“And” between values parts separate entries of the source, which are not always exact repeats. Identical values can stand only once. Like-named read-outs stand apart in the source and are kept apart here.

Legend:
[1] = pH-potentiometric titration (pKa); type: physicochemical
Method: An ECO automatic titrator (Metrohm AG, Herisau, Switzerland) with a Metrohm 6.0234.110 combined pH glass electrode was used for the potentiometric titrations under automatic PC control. The electrode was calibrated with aqueous standard buffer solutions. Constant temperature (298.15 ± 0.1 K) was provided by a thermostated double-walled glass cell. Difference titrations were carried out in the absence (blank) and presence of the titrand. First, 2 mL of 0.1 mol/L HCl solutions were titrated with 0.1 mol/L KOH. A constant ionic strength of 0.15 mol/L was provided by the presence of KCl. Next, a titrand was added to the same volume of HCl solution and subsequently titrated with KOH. The initial concentration of the titrand was around between 3 and 6 mmol/L in the titrations. Non-linear parameter fitting provided the dissociation constants from the interpolated volume differences. Potentiometric titrations were performed in triplicates, and the resulting pKa values are reported with ± standard error of the three fitted values.

[2] = 1H NMR-pH titration (macroscopic and microscopic pKa); type: physicochemical; conditions: for pKa: H2O/D2O 95:5 (v/v); for predominant protonation/charge form at physiological pH: physiological pH (7.4), from the determined acid-base constants; for pKaC^A (NMR): second step dissociation microconstant of the aromatic ammonium group; for pKaA^C (NMR): second step dissociation microconstant of the carboxyl group
Method: NMR spectra were recorded on a 400 MHz Varian Mercury Plus spectrometer equipped with a 5 mm Varian 400 Automation Triple Resonance Broadband Pulsed Field Gradient probe at 298.15 ± 0.1 K. The solvent was H2O/D2O 95:5 (v/v), the solution contained around 5 mmol/L titrand, and the ionic strength was adjusted to 0.15 mol/L. The pH values were adjusted with 2–5 mol/L HCl or NaOH (in order to avoid substantial dilution of the solution) and determined in situ by internal indicator molecules optimized for ^1H NMR [27, 28]. The sample volume was 500 μL containing DSS (3-(trimethylsilyl)propane-1-sulfonate) as a chemical shift reference. The H2O ^1H signal was suppressed with a WET sequence; the average acquisition parameters for ^1H measurements are number of transients = 8, number of points = 65,536, acquisition time = 3.33 s, and relaxation delay = 1.5 s. All spectra were processed using the MestReNova v9.0.1-13254 (Mestralab Research, S.L., Santiago de Compostela, Spain) software. NMR-pH titrations were performed once, and resulting pKa values are reported with ± standard error of the model fit.
The corollary of this assumption is not so obvious, however: the aliphatic ^1H NMR signals are relatively close to the aromatic amino group (in terms of covalent distance), especially the methylene group (5 covalent distance), therefore selectivity of aliphatic ^1H NMR signals in favor of aliphatic ammonium and carboxyl dissociation is dubious. This, however, can be exploited: the titration curve of the methylene group thus affords all three macroconstants, including Ka1, Ka2 in the acidic region (Equation (1)), while the aromatic and αCH ^1H NMR signals selectively afford the microconstants KaC^A (second step dissociation microconstant of the aromatic ammonium group), KaA^C (second step dissociation microconstant of the carboxyl group) (Equation (2)). […] Note that Equation (2) in its current form applies to the titration curves of the aromatic signals; for the αCH signal, Equation (2) is rewritten with KaC^A and KaA^C exchanged. For the curve fitting of Equation (2), the macroconstants are treated as fixed parameters transferred from the fitting of Equation (1).(1) δobs=δL+δHL·Ka2·10^−pH+δH2L·Ka1·Ka2·10^−2·pH/1+Ka2·10^−pH+Ka1·Ka2·10^−2·pH (2) δobs=δL·1+KaCA·10^−pH+δHL·KaAC·10^−pH+Ka1·Ka2·10^−2·pH/1+Ka2·10^−pH+Ka1·Ka2·10^−2·pH
The remaining dissociation microconstants (Ka^C and Ka^A) were calculated using Equation (3). Modern theoretical considerations of acid-base microconstant determination can be found in the works of Noszál and Borkovec, while some examples can be found in recent works.(3) pKa1+pKa2=pKaA+pKaAC=pKaC+pKaCA
The titration of 3-hydroxykynurenine (Figure 5) was treated the same way as for kynurenine, with the difference that 3-hydroxykynurenine has an overlapping dissociation in the basic pH region as well (the primary aliphatic ammonium dissociation overlaps with the dissociation of the phenol group). The same principle can be applied to the macro- and microconstant determination of kynurenine; only the last two macroconstants were transferred from potentiometric titration data since the latter is more precise than NMR-pH determined values and the chemical shift response of the methylene group towards the phenol dissociation (6 covalent distance) is not expected to be reliable. Otherwise, the microconstants of the basic pH range (KaACN^O—phenol group, KaACO^N—primary aliphatic ammonium group) were determined by fitting an analog (featuring Ka3 and Ka4) of Equation (2) to the titration data of all ^1H NMR signals. Note that the fitted pKaACN^O falls very close to the calculated pKaAC^N; therefore, to ensure a decreasing sequence of Ka values in every microscopic protonation pathway, an additional constraint was used during fitting: pKaACN^O be greater than the mean of pKa3 and pKa4. […]

UV-pH titration (pKa) = type: physicochemical; conditions: for pKa: aqueous HCl/NaOH solutions of varying pH
Method: UV spectroscopic measurements were carried out on a Jasco V-550 diode-array spectrometer (Jasco Ltd., Tokyo, Japan) with 10 mm quartz cuvettes at 298 K. The titrand was diluted with an acidic (HCl) and a basic (NaOH) stock solution to the same analyte concentration (adjusting ionic strength to 0.15 mol/L). In the case of kynurenic acid, a saturated acidic solution was diluted 10 times with HCl and NaOH, respectively, to obtain the stock solutions. Sample solutions with varying pH were prepared by mixing the two stock solutions in varying ratios. pH values were read on a Metrohm 2.780.0010 precision pH meter with a 6.0258.600 Unitrode glass Pt 1000 electrode (Metrohm AG, Herisau, Switzerland), and the pH-potentiometric system was calibrated using standard buffer solutions.

[3] = in vitro parallel permeability assay (PAMPA); type: in vitro ADME; conditions: passive transport only
Method: To further obtain additional information regarding the microspeciation scheme, the synthesis of methyl ester derivatives was attempted since these model compounds could provide the value of microconstants for cases where the carboxylic acid group is undissociated. […] In the first attempt, the compounds were each dissolved with 1-ethyl-3-(3-dimethylaminopropyl)carbodiimide (EDAC) and triethylamine in dichloromethane, and after fifteen minutes, methanol was added to the mixture, which was stirred overnight at room temperature. After this, the solution was washed with saturated sodium bicarbonate solution and distilled water. The organic phase was dried over sodium sulfate and then removed from the rotary evaporator. In the second attempt, the compounds were each dissolved in methanol, and the solution was cooled to 0 °C. Thionyl chloride was added dropwise, and the mixture was stirred at the same temperature for four hours. Then, the solvent was removed from the rotary evaporator, yielding an oily residue. […] The measurement of lipophilicity and membrane penetration of kynurenine and 3-hydroxykynurenine was also attempted; however, due to the extremely low predicted logP value of these compounds, it was not unexpected that obtaining such experimental data would not be feasible. […]

[4] = cited from earlier work; for pKa (first value) / pKa (second value): no mention of experimental methods
ROS = tested on: ROS; design: method as in PMID 21763768; conditions: cited from earlier work
[5] = aqueous HCl solution with KCl, titrated with KOH, unreliable, since two values could not be fitted, read-out: single pKa fitted in the acidic pH region (pH potentiometry titration)
[6] = first step microconstant of the aromatic ammonium group, calculated using Equation (3), read-out: pKa^A
[7] = first step microconstant of the carboxyl group, calculated using Equation (3), read-out: pKa^C
[8] = macroconstant from methylene signal, 298.15 K, ionic strength 0.15 mol/L, read-out: pKa1 (NMR)
[9] = macroconstant from methylene signal, 298.15 K, ionic strength 0.15 mol/L, read-out: pKa2 (NMR)

SMILES: Nc1ccccc1C(=O)C[C@H](N)C(=O)O [kynurenine]
- pKa ([1]; aqueous HCl solution with KCl, titrated with KOH, 298.15 K, ionic strength 0.15 mol/L, read-out: pKa fitted in the basic pH region (pH potentiometry titration)): 9.13 ± 0.02
- pKa [1, 5]: 2.39 ± 0.04
- pKa [2, 6]: 1.39
- pKa [2, 7]: 1.63
- pKa [2, 8]: 1.19
- pKa [2, 9]: 2.49
- pKa ([2]; macroconstant, aliphatic ammonium, 298.15 K, ionic strength 0.15 mol/L, read-out: pKa3 (NMR)): 9.33
- predominant protonation/charge form at physiological pH [2]: zwitterionic form
- pKaC^A (NMR) [2]: 2.05 ± 0.04 and 2.05
- pKaA^C (NMR) [2]: 2.29 ± 0.03 and 2.29
- pKaC^A (UV-pH titration) (UV-pH titration (pKa); second step dissociation microconstant of the aromatic ammonium group): 2.08 ± 0.2
- pKaA^C (UV-pH titration) (UV-pH titration (pKa); second step dissociation microconstant of the carboxyl group): 2.33 ± 0.05
- membrane penetration/retention (PAMPA) [3]: no detectable membrane penetration/retention

SMILES: O=C(O)c1ccccn1 [picolinic acid]
- pKa ([1]; aqueous HCl solution with KCl, titrated with KOH, triplicate, ± standard error, 298.15 K, ionic strength 0.15 mol/L, read-out: pKa2 (potentiometry)): 5.22 ± 0.01
- pKa ([1]; aqueous HCl solution with KCl, titrated with KOH, extreme acidic pKa of the carboxyl group, rough estimate, single nonlinear curve fit, 298.15 K, ionic strength 0.15 mol/L, read-out: pKa1 (by extrapolation of potentiometry)): ~0.63
- pKa ([1]; aqueous solution, ionic strength 0.15 mol/L, both titration techniques, 298.15 K, ionic strength 0.15 mol/L, read-out: pKa2 (mean of potentiometry and NMR)): ~5.2
- pKa2 (mean of potentiometry and NMR) ([1]; both titration techniques, 298.15 K, ionic strength 0.15 mol/L): 5.21
- pKa1 (by extrapolation of potentiometry) ([1]; extreme acidic pKa of the carboxyl group, rough estimate, single nonlinear curve fit, 298.15 K, ionic strength 0.15 mol/L): ~0.6
- pKa ([2]; ± standard error of fit, 298.15 K, ionic strength 0.15 mol/L, H2O/D2O 95:5, read-out: pKa (NMR-pH titration)): 5.19 ± 0.02
- pH of a further dissociation step indicated by shift of NMR signals ([2]; slight systematic shift below pH 1.5, outside the range of determination): < 1
- pKa (first value) ([4]; ref 25): 1.0
- pKa (second value) ([4]; ref 25): 5.4
- pKa (first value) ([4]; ref 26): 1.07
- pKa (second value) ([4]; ref 26): 5.25

SMILES: Nc1c(O)cccc1C(=O)CC(N)C(=O)O (stereo not shown) [3-hydroxykynurenine]
- pKa ([1]; aqueous HCl solution with KCl, titrated with KOH, macroconstant, 298.15 K, ionic strength 0.15 mol/L, read-out: pKa3 (potentiometry)): 8.65
- pKa ([1]; aqueous HCl solution with KCl, titrated with KOH, macroconstant, 298.15 K, ionic strength 0.15 mol/L, read-out: pKa4 (potentiometry)): 9.55
- pKa [1, 5]: 2.53 ± 0.03
- pKa [2, 6]: 1.82
- pKa [2, 7]: 1.91
- pKa [2, 8]: 1.56
- pKa [2, 9]: 2.69
- pKaAC^N ([2]; microconstant of the aliphatic ammonium group, phenol still protonated, calculated): 9.08
- pKaAC^O ([2]; microconstant of the phenol group, aliphatic ammonium still protonated, calculated): 8.85
- pKaACN^O (NMR) ([2]; microconstant of the phenol group, basic pH range, fit constrained to exceed mean of pKa3 and pKa4): 9.12
- pKaACO^N (NMR) ([2]; microconstant of the primary aliphatic ammonium group, basic pH range): 9.35
- predominant protonation/charge form at physiological pH [2]: zwitterionic form
- pKaC^A (NMR) [2]: 2.34
- pKaA^C (NMR) [2]: 2.43

SMILES: O=C(O)c1cc(=O)c2ccccc2[nH]1 [kynurenic acid]
- pKa ([1]; aqueous HCl solution with KCl, titrated with KOH, value is unreliable due to precipitate formation, read-out: pKa fitted (pH potentiometry titration)): 3.1 ± 0.1
- solubility behaviour during titration ([1]; below pH 3, no issue above pH 3): precipitation
- dissociation step above pH 7 until 13 ([2]; potentiometric and NMR-pH titration attempts): no dissociation step
- pKa (UV-pH titration (pKa); 10-fold diluted saturated solution, 298 K, ionic strength 0.15 mol/L, read-out: pKa (UV-pH titration, full spectrum measurement)): 2.44 ± 0.02
- pKa (UV-pH titration (pKa); single dissociation step, UV-pH titration, 298 K, ionic strength 0.15 mol/L, read-out: pKa1 (UV)): ~2.4
- pKa1 (UV) (UV-pH titration (pKa); single dissociation step, UV-pH titration, 298 K, ionic strength 0.15 mol/L): 2.43
- pKa of the radical form ([4]; radical form): 5.5
- concentration that can abolish iron(II) sulfate-induced ROS production (ROS): exceeding 100 µM
